# Assay results as given in patent US8247211B2, “Glycopeptide antibiotics” (American Cyanamid Company, priority 2001, dated 2012).
# Tests used:
# Assay in all cases: In vitro antibacterial evaluation: minimum inhibitory concentration (MIC), broth dilution method
# Assay type in all cases: cell-based
# Streptococcus sp. = test system: Streptococcus sp.
# Procedure: (§1) The minimum inhibitory concentration (MIC), the lowest concentration of the antibiotic which inhibits growth of the test organism, is determined by the broth dilution method using Muller-Hinton II […] (Baltimore Biological Laboratories) following the recommendations of the National Committee for Clinical Laboratory Standards [Methods for dilution antimicrobial susceptibility tests for bacteria that grow aerobically, approved standard M7-A2, National Committee for Clinical Laboratory Standards, Villanova, Pa].
# (§2) An inoculum level of 5×10^5 CFU/mL, and a range of antibiotic concentrations (64-0.06 μg/mL) is used. […] The test organisms include a spectrum of Gram-positive bacteria comprised of Staphylococcus sp., Streptococcus sp. and Enterococcus sp. These organisms include recent clinical isolates that are resistant to methicillin, penicillin and/or vancomycin.
# Escherichia coli = conditions: for MIC Escherichia coli (ATCC 25922): strain ATCC 25922
# Procedure: as §1, §2
# Enterococcus sp. = conditions: for MIC Enterococcus faecalis (ATCC 29212): strain ATCC 29212; for MIC Enterococcus faecium (GC 2243): strain GC 2243; for MIC Enterococcus faecalis (GC 4552): strain GC 4552; for MIC Enterococcus faecalis (GC 4553): strain GC 4553; for MIC Enterococcus faecalis (GC 4554): strain GC 4554; for MIC Enterococcus faecium (GC 4556): strain GC 4556; for MIC Enterococcus faecium (GC 4557): strain GC 4557; for MIC Enterococcus avium (GC 4558): strain GC 4558
# Procedure: as §1, §2
# Staphylococcus sp. = conditions: for MIC Staphylococcus haemolyticus (GC 4546): strain GC 4546; for MIC Coagulase Negative Staphylococcus (GC 4547): strain GC 4547; for MIC Coagulase Negative Staphylococcus (GC 4548): strain GC 4548; for MIC Coagulase Negative Staphylococcus (GC 4549): strain GC 4549; for MIC Coagulase Negative Staphylococcus (GC 4551): strain GC 4551; for MIC Coagulase Negative Staphylococcus (ID-3941): strain ID-3941
# Procedure: as §1, §2
# [1] = broth dilution, 18 hours at 35° C.
# [2] = strain GC 4543, 18 hours at 35° C.
smiles,measurement,setting,value
"CC(c1ccccc1)C1NC(=O)CNC(=O)C(CO)NC(=O)C(C(O)C2CN(c3nc4ccccc4s3)C(=N)N2C2OC(CO)C(O)C(O)C2O)NC(=O)C(C(O)C2CNC(=Nc3nc4ccccc4s3)N2)NC(=O)C(Cc2ccc(OC3OC(CO)C(OC4OC(CO)C(O)C(O)C4O)C(O)C3O)cc2)NC1=O (stereo not drawn) [Example 94, Cyclo[glycyl-β-methylphenylalanyl-O-(4-O-hexopyranosylhexopyranosyl)tyrosyl-3-[2-(1,3-benzothiazol-2-ylimino)imidazolidin-4-yl]seryl-3-[1-(1,3-benzo-thiazol-2-yl)-2-imino-3-hexonyranosylimidazolidin-4-yl]serylseryl]]",MIC Streptococcus agalactiae (GC 4564),"Streptococcus sp.; Streptococcus agalactiae (GC 4564), broth dilution, 18 hours at 35° C.",>64 mg/L
same,MIC Streptococcus pneumoniae (ATCC 6301),"Streptococcus sp.; Streptococcus pneumoniae (ATCC 6301), broth dilution, 18 hours at 35° C.",>64 mg/L
same,MIC Streptococcus pneumoniae (GC 1894),"Streptococcus sp.; Streptococcus pneumoniae (GC 1894), broth dilution, 18 hours at 35° C.",>64 mg/L
same,MIC Streptococcus pneumoniae (GC 4565),"Streptococcus sp.; Streptococcus pneumoniae (GC 4565), broth dilution, 18 hours at 35° C.",>64 mg/L
same,MIC Streptococcus pyogenes (GC 4563),"Streptococcus sp.; Streptococcus pyogenes (GC 4563), broth dilution, 18 hours at 35° C.",>64 mg/L
same,MIC Streptococcus pneumoniae (ATCC 6301),Streptococcus sp.; strain ATCC 6301,>64 mg/L
same,MIC Streptococcus pneumoniae (GC 1894),Streptococcus sp.; strain GC 1894,>64 mg/L
same,MIC Streptococcus pyogenes (GC 4563),Streptococcus sp.; strain GC 4563,>64 mg/L
same,MIC Streptococcus agalactiae (GC 4564),Streptococcus sp.; strain GC 4564,>64 mg/L
same,MIC Streptococcus pneumoniae (GC 4565),Streptococcus sp.; strain GC 4565,>64 mg/L
same,MIC Escherichia coli (ATCC 25922),Escherichia coli,>64 mg/L
same,MIC Escherichia coli (GC 4559),Escherichia coli; strain GC 4559,>64 mg/L
same,MIC Escherichia coli (GC 4560),Escherichia coli; strain GC 4560,64 mg/L
same,MIC Enterococcus faecalis (GC 2242),"Enterococcus sp.; Enterococcus faecalis (GC 2242), broth dilution, 18 hours at 35° C.",>64 mg/L
same,MIC Enterococcus faecalis (GC 2691),"Enterococcus sp.; Enterococcus faecalis (GC 2691), broth dilution, 18 hours at 35° C.",>64 mg/L
same,MIC Enterococcus faecalis (GC 3059),"Enterococcus sp.; Enterococcus faecalis (GC 3059), broth dilution, 18 hours at 35° C.",>64 mg/L
same,MIC Enterococcus faecalis (ATCC 29212),Enterococcus sp.,>64 mg/L
same,MIC Enterococcus faecalis (GC 2242),Enterococcus sp.; strain GC 2242,>64 mg/L
same,MIC Enterococcus faecium (GC 2243),Enterococcus sp.,>64 mg/L
same,MIC Enterococcus faecalis (GC 2691),Enterococcus sp.; strain GC 2691,>64 mg/L
same,MIC Enterococcus faecalis (GC 3059),Enterococcus sp.; strain GC 3059,>64 mg/L
same,MIC Enterococcus faecalis (GC 4552),Enterococcus sp.,>64 mg/L
same,MIC Enterococcus faecalis (GC 4553),Enterococcus sp.,>64 mg/L
same,MIC Enterococcus faecalis (GC 4554),Enterococcus sp.,>64 mg/L
same,MIC Enterococcus faecium (GC 4556),Enterococcus sp.,>64 mg/L
same,MIC Enterococcus faecium (GC 4557),Enterococcus sp.,>64 mg/L
same,MIC Enterococcus avium (GC 4558),Enterococcus sp.,>64 mg/L
same,MIC Enterococcus faecalis (GC 6189),Enterococcus sp.; strain GC 6189,>64 mg/L
same,MIC Staphylococcus aureus (ATCC 29213),Staphylococcus sp.; [1],>64 mg/L
same,MIC Staphylococcus aureus (GC 1131),Staphylococcus sp.; [1],>64 mg/L
same,MIC Staphylococcus aureus (GC 3051),Staphylococcus sp.; [1],>64 mg/L
same,MIC Staphylococcus aureus (GC 3053),Staphylococcus sp.; [1],>64 mg/L
same,MIC Staphylococcus aureus (GC 4541),Staphylococcus sp.; [1],>64 mg/L
same,MIC Staphylococcus aureus (GC 4542),Staphylococcus sp.; [1],>64 mg/L
same,MIC Staphylococcus aureus (GC 4544),Staphylococcus sp.; [1],>64 mg/L
same,MIC Staphylococcus aureus (GC 4545),Staphylococcus sp.; [1],>64 mg/L
same,MIC Staphylococcus aureus-SMITH (GC 4543),Staphylococcus sp.; [2],>64 mg/L
same,MIC Staphylococcus haemolyticus (GC 4546),Staphylococcus sp.,>64 mg/L
same,MIC Coagulase Negative Staphylococcus (GC 4547),Staphylococcus sp.,>64 mg/L
same,MIC Coagulase Negative Staphylococcus (GC 4548),Staphylococcus sp.,>64 mg/L
same,MIC Coagulase Negative Staphylococcus (GC 4549),Staphylococcus sp.,>64 mg/L
same,MIC Coagulase Negative Staphylococcus (GC 4551),Staphylococcus sp.,>64 mg/L
same,MIC Staphylococcus aureus-SMITH (GC 4543),"Staphylococcus sp.; strain SMITH GC 4543, broth dilution, 18 hours at 35° C.",>64 mg/L
"CCCC(CCC)C(=O)OCC1OC(Oc2ccc(CC3NC(=O)C(C(C)c4ccccc4)NC(=O)CNC(=O)C(CO)NC(=O)C(C(O)C4CNC(=N)N4C4OC(CO)C(O)C(O)C4O)NC(=O)C(C(O)C4CNC(=N)N4)NC3=O)cc2)C(O)C(O)C1OC1OC(CO)C(O)C(O)C1O (stereo not drawn) [Example 99b, Cyclo[glycyl-β-methylphenylalanyl-O-(4-O-hexopyranosyl-6-O-(2-propylpentanoyl)hexopyranosyl]tyrosyl-3-(2-iminoimidazolidin-4-yl)seryl-3-(3-hexopyranosyl-2-iminoimidazolidin-4-yl)serylseryl]]",MIC Streptococcus agalactiae (GC 4564),Streptococcus sp.; strain GC 4564,2 mg/L
same,MIC Streptococcus pneumoniae (GC 4565),Streptococcus sp.; strain GC 4565,<0.5 mg/L
same,MIC Streptococcus pyogenes (ID-3187),Streptococcus sp.; strain ID-3187,1 mg/L
same,MIC Escherichia coli (ATCC 25922),Escherichia coli,>64 mg/L
same,MIC Enterococcus faecalis (ATCC 29212),Enterococcus sp.,16 mg/L
same,MIC Enterococcus faecalis (GC 2242),Enterococcus sp.; strain GC 2242,16 mg/L
same,MIC Enterococcus faecium (GC 2243),Enterococcus sp.,16 mg/L
same,MIC Enterococcus faecalis (GC 4552),Enterococcus sp.,32 mg/L
same,MIC Enterococcus faecalis (GC 4553),Enterococcus sp.,16 mg/L
same,MIC Enterococcus faecalis (GC 4554),Enterococcus sp.,32 mg/L
same,MIC Enterococcus faecium (GC 4556),Enterococcus sp.,16 mg/L
same,MIC Enterococcus faecium (GC 4557),Enterococcus sp.,4 mg/L
same,MIC Enterococcus avium (GC 4558),Enterococcus sp.,16 mg/L
same,MIC Staphylococcus aureus (ATCC 29213),Staphylococcus sp.; [1],4 mg/L
same,MIC Staphylococcus aureus (GC 1131),Staphylococcus sp.; [1],4 mg/L
same,MIC Staphylococcus aureus (GC 4541),Staphylococcus sp.; [1],4 mg/L
same,MIC Staphylococcus aureus (GC 4542),Staphylococcus sp.; [1],4 mg/L
same,MIC Staphylococcus aureus (GC 4544),Staphylococcus sp.; [1],4 mg/L
same,MIC Staphylococcus aureus (GC 4545),Staphylococcus sp.; [1],4 mg/L
same,MIC Staphylococcus aureus-SMITH (GC 4543),Staphylococcus sp.; [2],4 mg/L
same,MIC Staphylococcus aureus-SMITH (GC 4543),"Staphylococcus sp.; strain GC 4543, broth dilution, 18 hours at 35° C.",4 mg/L
same,MIC Staphylococcus haemolyticus (GC 4546),Staphylococcus sp.,4 mg/L
same,MIC Staphylococcus haemolyticus (GC 4546),Staphylococcus sp.; [1],4 mg/L
same,MIC Coagulase Negative Staphylococcus (GC 4547),Staphylococcus sp.,4 mg/L
same,MIC Coagulase Negative Staphylococcus (GC 4547),Staphylococcus sp.; [1],4 mg/L
same,MIC Coagulase Negative Staphylococcus (GC 4548),Staphylococcus sp.,4 mg/L
same,MIC Coagulase Negative Staphylococcus (GC 4548),Staphylococcus sp.; [1],4 mg/L
same,MIC Coagulase Negative Staphylococcus (GC 4549),Staphylococcus sp.,2 mg/L
same,MIC Coagulase Negative Staphylococcus (GC 4549),Staphylococcus sp.; [1],2 mg/L
same,MIC Coagulase Negative Staphylococcus (GC 4551),Staphylococcus sp.,8 mg/L
same,MIC Coagulase Negative Staphylococcus (GC 4551),Staphylococcus sp.; [1],8 mg/L
same,MIC Coagulase Negative Staphylococcus (ID-3941),Staphylococcus sp.,2 mg/L
same,MIC Coagulase Negative Staphylococcus (ID-3941),Staphylococcus sp.; [1],2 mg/L
